The term EC50 denotes the concentration giving half of the maximal effect.

The values below come from publication PMC6222422, “Synthesis and Biological Evaluation of Novel Indole-Derived Thioureas” (Molecules : A Journal of Synthetic Chemistry and Natural …, 2018).

In one data set the test system is CV-B5. Put plainly: microbe, parasite or virus in culture. The conditions noted are these: Enterovirus B, CVB5, Vero 76, read-out: CV-B5 EC50. The format is cell-based, coxsackievirus B5.
The next data set has as its system Sb-1. Put plainly: microbe, parasite or virus in culture. It counts as cell-based, poliovirus type-1. The conditions noted are these: Enterovirus C, Vero 76, read-out: Sb-1 EC50.
In another data set the test system is Reo-1. Put plainly: microbe, parasite or virus in culture. The format is cell-based, reovirus type-1. Conditions: Reovirus sp., BHK, read-out: Reo-1 EC50.
A short description of data set [1]: in vitro. The conditions noted are these: Syrian hamster (Mesocricetus auratus).
The nature of data set [2]: in vitro. The conditions noted are these: African green monkey (Cercopithecus aethiops).
The subject of another data set is HSV-1. Put plainly: microbe, parasite or virus in culture. It counts as cell-based, human herpes 1. Conditions: Human alphaherpesvirus 1, Vero 76, read-out: HSV-1 EC50.
The subject of another data set is BVDV. Put plainly: microbe, parasite or virus in culture. Conditions: for EC50: Bovine viral diarrhea virus isolates and strains, MDBK, in Bos taurus, read-out: BVDV EC50. The format is cell-based, bovine viral diarrhoea virus.
For a further data set, the system named is YFV. Put plainly: microbe, parasite or virus in culture. It counts as cell-based. Conditions: Yellow fever virus, BHK, read-out: YFV EC50.
The subject of the next data set is RSV. Put plainly: microbe, parasite or virus in culture. It counts as cell-based, human respiratory syncytial virus. The conditions noted are these: human respiratory syncytial virus, Vero 76, read-out: RSV EC50.
The test system of the next data set is VSV. Put plainly: microbe, parasite or virus in culture. The format is cell-based. The conditions noted are these: Vesicular stomatitis virus, Vero 76, read-out: VSV EC50.
In the next data set the test system is VV. Put plainly: microbe, parasite or virus in culture. It counts as cell-based. Conditions: Orthopoxvirus vaccinia, Vero 76, read-out: VV EC50.
A short description of data set [3]: in vitro. The conditions noted are these: human.
Data set [4] can be described thus: in vitro. Conditions: cattle (Bos taurus).
In the next data set the test system is HIV-1. Put plainly: microbe, parasite or virus in culture. The conditions noted are these: Human immunodeficiency virus 1, MT4, read-out: HIV-1 EC50.

Each structure is given as a SMILES string.

Turning to `C[C@@]1(O)[C@H](O)[C@@H](CO)O[C@H]1n1ccc(N)nc1=O` [2′-C-methyl-cytidine, 2′-C-methylcytidine, reference compound], the EC50 in the data set with CV-B5 was determined as 18 ± 0.9 µM; in the data set with Sb-1 it was 7.3 ± 0.4 µM; in the data set on Reo-1, 10 ± 1.2 µM. For the same molecule, the CC50 in the data set “in vitro [1]” and in the data set “in vitro [2]” was greater than 100 µM throughout.

For the molecule `Nc1nc2c(ncn2COCCO)c(=O)[nH]1` [Acycloguanosine, acycloguanosine, reference compound], the EC50 in the data set with HSV-1 was 3 ± 0.2 µM. The molecule also registered a CC50 in the data set “in vitro [2]” greater than 100 µM.

Regarding `S=C(NCCc1c[nH]c2ccccc12)Nc1ccccc1` [Compound 1, 1-(2-(1H-Indol-3-yl)ethyl)-3-phenylthiourea], the EC50 in the data set on BVDV is greater than 100 µM; in the data set with YFV, greater than 48 µM; with CV-B5 it was greater than 64 µM; in the data set on Sb-1, greater than 64 µM; in the data set on Reo-1, greater than 48 µM; in the data set on RSV, greater than 64 µM. In addition, the concentration for a half-maximal effect (EC50) in the data set with VSV was greater than 64 µM; in the data set with VV, greater than 64 µM; in the data set on HSV-1, greater than 64 µM; with HIV-1 it was greater than 31 µM. Besides, the CC50 is 31 µM in the data set “in vitro [3]”, greater than 100 µM in the data set “in vitro [4]”, 48 µM in “in vitro [1]” and 64 µM in “in vitro [2]”.

For the molecule `S=C(NCCc1c[nH]c2ccccc12)Nc1ccc(Cl)cc1` [Compound 4, 1-(2-(1H-Indol-3-yl)ethyl)-3-(4-chlorophenyl)thiourea], the EC50 in the data set on BVDV was greater than 100 µM; in the data set with YFV, greater than 47 µM; with CV-B5, greater than 55 µM; with Sb-1 it was greater than 55 µM; with Reo-1, greater than 47 µM; in the data set on RSV, greater than 55 µM. In addition, the EC50 was greater than 55 µM in the data set with VSV, greater than 55 µM in the data set on VV, greater than 55 µM with HSV-1 and greater than 45 µM in the data set with HIV-1. Further, the CC50 in “in vitro [3]” was 45 µM; in “in vitro [4]”, greater than 100 µM; in “in vitro [1]”, 47 µM; in “in vitro [2]”, 55 µM.

As for `O=C(NC(=S)NCCc1c[nH]c2ccccc12)c1ccccc1` [Compound 5, 1-(2-(1H-Indol-3-yl)ethyl)-3-benzoylthiourea], the “activity against BVDV (in words)” value with BVDV was “showed activity”. Further, the EC50 in the data set with BVDV is 20 ± 1.5 µM; in the data set on YFV, greater than 34 µM; in the data set on CV-B5 it was greater than 29 µM; in the data set with Sb-1, greater than 29 µM; in the data set with Reo-1 it was greater than 34 µM; in the data set on RSV, greater than 29 µM. Moreover, the EC50 with VSV was greater than 29 µM; in the data set on VV, greater than 29 µM; in the data set with HSV-1 it was greater than 29 µM; with HIV-1, greater than 38 µM. For the same molecule, the CC50 in the data set “in vitro [3]” turned out to be 38 µM; in “in vitro [4]” it was 67 µM; in the data set “in vitro [1]”, 34 µM; in the data set “in vitro [2]”, 29 µM.

In the case of `S=C(NCCc1c[nH]c2ccccc12)NC1CCCCC1` [Compound 9, 1-(2-(1H-Indol-3-yl)ethyl)-3-cyclohexylthiourea], the EC50 with BVDV was greater than 55 µM; with YFV it was greater than 13 µM; in the data set on CV-B5, greater than 14 µM; in the data set on Sb-1 it was greater than 14 µM; in the data set with Reo-1, greater than 13 µM; with RSV, greater than 14 µM. For the same molecule, the EC50 is greater than 14 µM in the data set on VSV, greater than 14 µM in the data set on VV, greater than 14 µM in the data set with HSV-1 and greater than 49 µM in the data set with HIV-1. Also, the CC50 is 49 µM in “in vitro [3]”, 55 µM in the data set “in vitro [4]”, 13 µM in the data set “in vitro [1]” and 14 µM in “in vitro [2]”.

With `COc1c(C)c2c(c(O)c1C/C=C(\C)CCC(=O)O)C(=O)OC2` [Mycophenolic acid, mycophenolic acid, reference compound], the 50% effective concentration (EC50) in the data set with VV worked out at 1.5 ± 0.2 µM. The CC50 in the data set “in vitro [2]” worked out at 13 µM.
